Measured values: patent US12310964B2, “Compositions and methods for the treatment of Lowe Syndrome” (Purdue Research Foundation, priority 2020, dated 2025)

Tests used:
Format in all cases: cell-based, Human
[1] = system: LS patient cells; test: Cell adhesion by time-lapse microscopy
Procedure: (§1) Human dermal fibroblasts were treated as described above, seeded on fibronectin-coated LabTek chambers, and allowed to attach and spread. Cells were imaged at intervals of 10 min after seeding for 8 h using 20× objective in a Zeiss Axiovert inverted microscope. Number of detaching cells was quantified every 10 min up to the first hour by using the cell counter tool in ImageJ (NIH). To determine spreading kinetics, individual cells were tracked in each time lapse image and were scored from 1-5 based on general cell morphology. Briefly, cells that were just attached and looked circular with no protrusions or visible extensions received a score of 1. Cells with needle-like (filopodia) projections were scored 2, cells with lamellopodia-like extensions were scored 3, cells with more extended lamellopodia-like extensions and increased cell area were given a score of 4, and a further increase in cell area, often accompanied by isotropic spread morphology, was given a score of 5.
Alternatively, cells were treated as described above and allowed to attach on fibronectin-coated dishes. Immediately after seeding, the cells were imaged with a 10× objective simultaneously using up to 3 Cytosmart Imaging Systems (Lonza, Basel, Switzerland) at intervals of 30 s for 2 h. Number of cells attached was quantified every 10 min up to the first hour using the Cell Counter tool in ImageJ software (NIH). […]

[2] = system: Normal fibroblasts; test: Cell spreading assay after a predetermined time-point (cell area); details: 30 min after seeding on fibronectin
Procedure: (§2) Human dermal fibroblasts (12 h after seeding) were treated with the indicated drug (or vehicle) in 0.1% serum for the indicated time. After drug treatment, the cells were lifted with 20 mM EDTA (ethylenediaminetetraacetic acid) in PBS (phosphate-buffered saline), pelleted at 300×g for 5 min and resuspended in 1% serum in the presence of drug or vehicle. Cell suspensions were then set in a rotator for 1 hour before seeding them on fibronectin-coated coverslips for 30 min, undisturbed, to allow attachment and spreading. After spreading, coverslips were gently rinsed with PBS and fixed in 4% formaldehyde for 10 min at room temperature. Cells were stained with rhodamine—phalloidin and imaged by epifluorescence microscopy. At least 50 cells were quantified per experiment by tracing and measuring cell areas by using the magic wand tool in ImageJ software (National Institutes of Health (NIH), Bethesda, MD, USA).
(§3) Cell spreading on fibronectin-coated surfaces of cells treated with RhoA modulators in comparison to untreated cells was observed. Cells were fixed and stained with fluorescently labeled-phalloidin after 30 min spreading time at 37° C. Following imaging, cell area measurements were performed.

[3] = system: Rac1; test: Rac1 FRET biosensor assay; details: LS cells, FRET-based biosensor
Procedure: FIG. 9. […] LS patient cells expressing Rac1 FRET probe were treated with vehicle or rosuvastatin, imaged and FRET signals analyzed by the ratiometric method (*p<0.05, Wilcoxon test).

[4] = system: LS patient cells; test: Cell spreading assay after a predetermined time-point (cell area)
Procedure: Two approaches to monitor cell spreading were used: after a predetermined time-point and at multiple time points.
1) Spreading after a Predetermined Time-Point.
as §2, §3

[5] = system: HMG-CoA reductase in LS cells; test: Cholesterol uptake assay; details: LS patient fibroblasts in Cho-free media
Procedure: Assay for cholesterol uptake was performed using cholesterol-free media and an AbCam kit (ab236212; Cambridge, UK) according to manufacturer's instructions.

[6] = system: LS patient cells; test: Viability/toxicity assessment (cell counting, morphology, MTT)
Procedure: Cells were incubated with the indicated drugs for the specified times at different concentrations as described in low serum (0.1%) media to avoid substantial protein-mediated drug sequestration. In addition to cell counting post-treatment, a sample of cells seeded on fibronectin-coated coverslips was fixed and stained with fluorescein isothiocyanate (FITC)-phalloidin and DAPI (4′,6-diamidino-2-phenylindole) for cell morphology inspection. Viability was monitored by performing MTT (3-(4,5-dimethylthiazol-2-yl)-2,5-diphenyltetrazolium bromide) assays as follows: Following treatment of cells (in triplicates) with indicated drugs at different concentrations for specified times, media were aspirated and replaced with MTT solution (freshly prepared at 0.5 mg/ml in complete media) and incubated for 1.5 h. Additionally, a blank control with only MTT reagent containing no cells was also prepared. Following incubation, solution was aspirated and MTT was immediately solubilized using 1 mL DMSO (dimethylsulfoxide) (per well) by gentle pipetting. Absorbance values of solubilized MTT solution from the different wells were measured at 570 nm using a spectrophotometer.

[7] = system: normal cells; test: Ciliogenesis assay
Procedure: Cells were seeded on glass cover slips and grown for 24 h in complete media. Then media was replaced by 0.1% serum DMEM (starvation media) containing vehicle or the drug to induce ciliogenesis for the indicated times. Cells were then fixed in 4% formaldehyde—PBS for 10 min and immuno-labeled with anti-acetylated tubulin antibody (see Table 2). At least 50 cells were imaged for every experiment and experiments were repeated at least thrice. The fraction of cells displaying cilia and cilia length were determined as described previously (Coon et al. (2012), supra).

[8] = system: LS patient cells; test: Spreading at multiple time points (spreading score, time-lapse); details: LS patient cells treated with rosuvastatin; non-linear regression of FIG. 4 data
Procedure: as §1
A von Bertalanffy logistic model was adopted to fit the data presented in FIG. 3A (adhesion) and FIG. 4 (spreading) as shown in Table 3. […] The associated error ΔK was estimated using standard rules of error propagation based on the determined T0.5 error (ΔT0.5), according to ΔK=K(ΔT0.5/T0.5).

[9] = system: Focal Adhesion Kinase (FAK); test: Focal adhesion immunofluorescence (phospho-FAK), confocal microscopy; details: LS cells
Procedure: Cells were prepared as described under “Spreading after a pre-determined time point.” After fixation, indirect immunofluorescence was performed using antibodies against phospho-FAK (Y397) or vinculin. Briefly, cells were gently washed with PBS, fixed with 4% formaldehyde-PBS for 10 min and permeabilized using 0.25% Triton-X 100 in PBS for 20 min, followed by blocking with 5% BSA (bovine serum albumin) in PBS for 30 min. Cells were also immuno-stained with Phalloidin-FITC and DAPI to label the actin cytoskeleton and nucleus, respectively. Images were acquired at the Indiana O'Brien Center for Biological Microscopy (ICBM; Division of Nephrology, Indiana University School of Medicine, Indianapolis, IN, USA) using an Olympus IX81 inverted confocal microscope. A 60× Oil objective (NA 1.42) was used and randomly selected fields were imaged using constant voltage, gain and intensity for the different groups, as well as uniform step size (0.19 μm) using sequential image collection mode.

- peripherally activated FAK (phospho-Tyr397) abnormality [9]: alleviated
Compound: CC(C)c1nc(N(C)S(C)(=O)=O)nc(-c2ccc(F)cc2)c1/C=C/[C@@H](O)C[C@@H](O)CC(=O)O [rosuvastatin]
- LS cell adhesion defect ([1]; LS cells on fibronectin-coated surfaces): alleviated the LS cell adhesion defect
- Adhesion, Process Continuous Rate ([1]; LS patient cells treated with rosuvastatin, fibronectin-coated surfaces, non-linear regression of FIG. 3A data): 35 ± 5 min^−1 × 10^3
- cell spreading of normal cells [2]: No obvious effect
- Rac1 activation levels [3]: raised
- LS spreading phenotype alleviation, acute dose ([4]; 100 μM for 1 h): Phenotype alleviation was observed
- cell spreading / membrane remodeling phenotype in cells from another LS patient ([4]; LS2 cells, FIG. 8A): ameliorated
- LS cell spreading phenotype ([4]; LS patient fibroblasts, 30 min after seeding on fibronectin): mitigated to a certain extent the LS spreading phenotype
- ranking of statins: rescue effect over needed dose and toxicity ([4]; LS spreading defects): produced the best results
- uptake of fluorescently labeled Cho (inhibition of cholesterol biosynthesis) [5]: less acute inhibition of cholesterol biosynthesis
- toxicity, chronic exposure ([6]; 10 μM for ≥72 h): relatively innocuous
- toxicity, acute dose ([6]; 100 μM, exposure time≥15 h): induced toxicity
- toxicity (viability and stress-induced changes in morphology) ([6]; LS cells after exposure to statins): minimal toxicity
- ciliogenesis by normal cells [7]: No obvious effect
- Spreading, Process Continuous Rate [8]: 24 ± 2 min^−1 × 10^3
